Columns and labels:
[1] = system: MELpT-KNL1; experiment: MELpT-KNL1 foci in E98 tumors (target inhibition); format: in vivo, mice; details: last day of 5/10 mg/kg b.i.d.x7d schedule
Description: Mouse heads were fixed in 4% (v/v) formaldehyde and 5% (v/v) glacial acetic acid overnight, and subsequently decalcified in 6.5% (v/v) formic acid at 37 °C for 4 days. Decalcified tissues were paraffin embedded and cut into 4 μm coronal sections that were stained with hematoxylin and eosin (H&E), and for human Vimentin (1:4,000; M0725; DakoCytomation; Glostrup, Denmark), P-gp (1:200; 13978; Cell Signaling Technology; Danvers, MA), BCRP (1:400; ab24115; Abcam; Cambridge, UK), mouse IgG (K4001, Dako) and MELpT-KNL1 (1:50; as described previously). Sections were imaged and processed using an Aperio AT2 system and ImageScope software (v12; both Leica). MELpT-KNL1 foci were imaged using an Axio Observer Z1 system (Carl Zeiss AG; Oberkochen, Germany).

[2] = Tolerability of oral dosing schedules in Abcb1a/b;Abcg2-/- mice; format: in vivo
[3] = target: T1, BCRP (Mus musculus, UniProt Q7TMS5); experiment: Brain penetration in Abcg2-/- mice; format: in vivo; details: 1 h after 5 mg/kg i.v.
T1 construct: from tissue; host or cells: blood-brain barrier / brain of FVB mice (WT versus Abcg2-/-)
T1 sequence (Q7TMS5 1-657): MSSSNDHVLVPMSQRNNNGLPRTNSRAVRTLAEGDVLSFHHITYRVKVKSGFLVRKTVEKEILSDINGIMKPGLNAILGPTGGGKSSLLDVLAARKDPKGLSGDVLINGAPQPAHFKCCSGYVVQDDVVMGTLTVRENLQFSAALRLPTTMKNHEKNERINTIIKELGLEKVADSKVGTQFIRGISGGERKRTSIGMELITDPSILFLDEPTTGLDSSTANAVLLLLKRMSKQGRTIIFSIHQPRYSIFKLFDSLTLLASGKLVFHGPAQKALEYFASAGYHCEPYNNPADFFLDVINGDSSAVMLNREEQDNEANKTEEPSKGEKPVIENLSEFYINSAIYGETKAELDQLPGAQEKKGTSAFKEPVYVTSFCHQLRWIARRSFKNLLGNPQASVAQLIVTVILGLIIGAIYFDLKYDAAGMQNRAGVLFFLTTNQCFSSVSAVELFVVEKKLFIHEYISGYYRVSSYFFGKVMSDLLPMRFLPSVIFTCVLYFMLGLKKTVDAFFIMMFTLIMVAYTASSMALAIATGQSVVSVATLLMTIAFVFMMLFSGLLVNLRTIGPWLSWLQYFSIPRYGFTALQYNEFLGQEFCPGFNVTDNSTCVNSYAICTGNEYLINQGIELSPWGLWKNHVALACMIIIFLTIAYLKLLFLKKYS
Description: The pharmacokinetics of NTRC 0066-0 were analyzed in wild-type (WT), Abcb1a/b^−/−, Abcg2^−/−, Abcb1a/b^−/−;Abcg2^−/− and Abcb1a/b^−/−;Abcg2^−/−;Abcc4^−/− FVB mice. All knockout mice strains have been developed at the Netherlands Cancer Institute. For i.v. administration, NTRC0066-0 was formulated in DMSO: Cremophor EL: saline (1:1:8 v/v) and injected at a dose of 5 mg/kg. For i.p and oral administration, NTRC0066-0 was administered at 5, 10 or 20 mg/kg as indicated. Serial blood sampling was done by tail vein bleeding at specific time points. At terminal time points, blood was drawn by cardiac puncture followed by tissue collection. Plasma was obtained from whole blood by centrifugation (5 min, 5,000 rpm, 4 °C) and tissues were weighed and homogenized using a FastPrep®-24 (MP-Biomedicals, NY) in 1% (w/v) bovine serum albumin (Sigma-Aldrich) in water.
NTRC 0066-0 was extracted from in vitro and in vivo samples using liquid–liquid extraction with diethyl ether. Another MPS-1 inhibitor, Compound 5 (Cpd-5), was added to the samples as an internal standard. The dried organic phase was reconstituted in 30% methanol in water (v/v). Samples were measured using an LC-MS/MS system comprising an UltiMate 3000 LC Systems (Dionex, Sunnyvale, CA) and an API 4000 mass spectrometer (Sciex, Framingham, MA). […]

[4] = system: P-gp; set-up: method as in PMID 26153498; details: calcein-AM efflux assay; cited from earlier work

CCc1cccc(CC)c1NC(=O)c1ccn2c1CCc1cnc(Nc3ccc(N4CCN(C)CC4)cc3OC)nc1-2 [NTRC 0066-0]
Duration of reduction in MELpT-KNL1 foci in pro-/metaphase cells [1]: at least 24 h | Tolerability of schedule ([2]; 5 mg/kg p.o. morning + 10 mg/kg p.o. about 8 h later, 7 consecutive days): could safely administer | Tolerability of schedule ([2]; 20 mg/kg p.o. every other day for 11 days (q.2d.x11d)): could safely be given | Plasma and brain concentrations compared to WT mice [3]: no differences | Inhibition of P-gp activity [4]: does not inhibit the activity of P-gp

Source: publication PMC12909347, “Disconnect between in vitro and in vivo efficacy of the MPS1 inhibitor NTRC 0066-0 against glioblastoma” (Cellular Oncology, 2026)
